# Experimental data reported in patent publication US20070048234A1, “COMPOSITIONS AND METHODS FOR TREATING ACNE” (REVANCE THERAPEUTICS, INC., priority 2005, published 2007).
# Counter-ions that a name gives are not always drawn.
# How the values were obtained:
# acne lesion = assay: topical multi-step treatment of an acne lesion (vasoconstricting composition, then anti-acne agent); type: in vivo; conditions: upon topical application of the vasoconstricting composition to the acne lesion
# From the text: (§1) This example provides a two step treatment for acne. The first step involves topically applying a vasoconstricting composition to the acne lesion to be treated. Suitable vasoconstricting compositions include tetrahydrozoline HCl 0.05%, naphazoline HCl 0.03%, or oxymetazoline HCl 0.025% in an aqueous base containing HPC to increase the viscosity for ease of application. Upon application of the vasoconstricting composition, the redness and swelling of the acne lesion diminishes, making the acne lesion less noticeable. After about 5 minutes, a second step is performed which involves topically applying 5% benzoyl peroxide 5% in an oil-in water moisturizer base. In this example, the benzoyl peroxide 5% is tinted to match the skin tone of the user, but this tinting is optional.
# as §1, with “three-step nighttime” for “two step”, “peroxide” for “peroxide 5%”, “The acne lesion is then covered with a patch that includes silicone on” for “In this example,”, “skin-side” for “benzoyl peroxide 5% is tinted to match the skin tone”, “patch. The patch remains in place overnight and” for “user, but this tinting”, “removed in the morning.” for “optional.”
# The following night, the three-step acne treatment is repeated.
# This example provides a three-step acne treatment that is suitable for daytime use. The first step involves topically applying a vasoconstricting composition to the acne lesion to be treated. Suitable vasoconstricting compositions include tetrahydrozoline HCl 0.05%, naphazoline HCl 0.03%, or oxymetazoline HCl 0.025% in an aqueous base containing HPC to increase the viscosity for ease of application. […]
# [1] = topical application; cited from earlier work
# [2] = test system: propionibacterium acnes (P. Acnes); conditions: compared with other medications on the market, prescription or otherwise; cited from earlier work
# [3] = when topically applied; cited from earlier work
Compound,redness and swelling of the acne lesion (acne lesion),flux into the skin [1],kills propionibacterium acnes (P. Acnes) [2],share of the population that experiences skin allergies [3]
"Cc1cc(C(C)(C)C)c(O)c(C)c1CC1=NCCN1 [oxymetazoline HCl 0.025%, oxymetazoline HCl]",diminishes,,,
"c1ccc2c(CC3=NCCN3)cccc2c1 [naphazoline HCl 0.03%, naphazoline HCl]",diminishes,,,
"c1ccc2c(c1)CCCC2C1=NCCN1 (stereo not drawn) [tetrahydrozoline HCl 0.05%, tetrahydrozoline HCl]",diminishes,,,
O=C(OOC(=O)c1ccccc1)c1ccccc1 [benzoyl peroxide],,high,better than any other medication on the market,about 10%
